Results: patent publication US12419890B2, “Administration of sumo-activating enzyme inhibitor and checkpoint inhibitors” (Takeda Pharmaceutical Company Limited, priority 2019, dated 2025)

Tested on: WEHI-3 syngeneic mouse myelomonocytic leukemia-derived subcutaneous tumor
Experiment: WEHI-3 Study 4: mouse WEHI-3 syngeneic tumor model, individual tumor volume
Assay type: in vivo
Details: Compound I-263a 7.5 mg/kg IV BIWx3
Description: WEHI-3 Study 4: WEHI-3 is a mouse myelomonocytic leukemia cell line. WEHI-3 mouse syngeneic tumor model was generated by subcutaneous inoculation with 0.1×10^6 WEHI-3 cells (cell suspension) in 13 weeks old female BALB/c mice (Jackson Laboratory, 600 Main St, Bar Harbor, ME) in the flank. When the mean tumor volume reached approximately 50 mm^3, the animals were randomized into one vehicle control and five treatment groups (n=8/group). Mice were then dosed with 20% HPbCD or Compound I-263a or anti-mouse PD-1 antibody or anti-mouse CTLA-4 antibody over a 21-day period. Tumor growth and body weight were measured twice per week during the treatment and post-treatment periods, and mice were humanely euthanized once they had reached their humane endpoint.
Study 4: A 1.01 mg/mL stock solution of Compound I-263a was formulated weekly in 20% HPβCD and administered intravenously (IV) based on exact animal body weight on each day of treatment, using a dosing volume of 10 mL/kg body weight. Final doses received were 7.5 mg/kg. Dosing volume for Compound I-263a was 0.2 mL. […]
Tumors were measured twice weekly using vernier calipers. Tumor volumes were calculated using standard equation: V=W^2×L/2, where V=volume, W=width, and L=length for the tumor. […] Tumor size and body weight were measured twice a week for the duration of the study. […]

`Cc1sc(C(=O)c2cncnc2N[C@@H]2C[C@H](COS(N)(=O)=O)[C@@H](O)C2)cc1[C@@H]1NCCc2ccc(Cl)cc21` [Compound I-263a, [(1R,2S,4R)-4-{[5-({4-[(1R)-7-chloro-1,2,3,4-tetrahydroisoquinolin-1-yl]-5-methyl-2-thienyl}carbonyl)pyrimidin-4-yl]amino}-2-hydroxycyclopentyl]methyl sulfamate] was tested, and the “effect on tumor growth” value (8 tumors/group) was “very little effect” and the “slight tumor growth delays” value (delay to day 14, out of 8 implanted tumors) was 2.
